Assay results from paper PMC6190829 (Journal of medicinal chemistry, 2018).
“And” between values parts separate entries of the source, which are not always exact repeats. Equal entries are not always repeated. “Also recorded” adds a separate entry of the source. Values belong to the molecule of their own block, whether it stands above or below them.

What was measured:
[1] = Kinetic aqueous solubility in buffer pH 7.4; type: physicochemical
HaCaT cells [2] = experiment: NRF2 target gene mRNA expression; type: cell-based, human; details: 10 μM
HaCaT cells [3] = experiment: Immunoblot of NRF2, NQO1, GCLM protein levels; type: cell-based, human; details: 10 μM
HaCaT cells [4] = experiment: Nuclear accumulation of NRF2; type: cell-based, human; details: 10 μM, 6 and 24 hours, vs DMSO control
Kelch domain of KEAP1 [5] = molecular target: T1, Kelch domain of KEAP1 (Homo sapiens, UniProt Q14145); experiment: Fluorescence anisotropy; details: IC50 (nM) (95% CI), fluorescent NRF2 peptide / KEAP1 Kelch domain
T1 sequence (Q14145 321-609 limits assumed): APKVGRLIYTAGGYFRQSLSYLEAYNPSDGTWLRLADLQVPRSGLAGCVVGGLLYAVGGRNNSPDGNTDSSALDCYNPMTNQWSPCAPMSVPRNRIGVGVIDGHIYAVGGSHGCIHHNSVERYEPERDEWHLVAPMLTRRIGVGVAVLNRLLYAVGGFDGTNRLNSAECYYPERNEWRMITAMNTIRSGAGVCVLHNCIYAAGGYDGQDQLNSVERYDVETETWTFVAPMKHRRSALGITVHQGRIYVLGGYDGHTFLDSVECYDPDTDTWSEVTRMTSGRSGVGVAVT

[6] = system: Salmonella typhimurium (TA98, TA100, TA1535, TA1537); experiment: Mini-Ames assay, revertant colonies per strain; details: for Dose response of revertant increase: 6a: TA98 and TA100
[7] = Microsomal stability, mouse liver microsomes; type: in vitro ADME; details: 1 μM, 20 min, NADPH
[8] = system: Salmonella typhimurium (TA98, TA100, TA1535, TA1537) and Escherichia coli (WP2 uvrA (pKM101)); experiment: Mini-Ames assay, cytotoxicity and overall judgement over all strains; details: for Cytotoxicity in Mini-Ames assay: 1.5-1000 μg/well, any dose level; for Mutagenicity judgement: Mini-Ames, with and without S9
Solubility in DMSO = type: physicochemical
Kelch domain of KEAP1 [9] = molecular target: T1, Kelch domain of KEAP1; experiment: Surface plasmon resonance assay
[10] = cited from earlier work
[11] = with S9 mix, higher dose levels, vs vehicle control

Aqueous solubility [1]: modest aqueous solubilities
SMILES: COc1ccc(S(=O)(=O)Nc2ccc(NS(=O)(=O)c3ccc(OC)cc3)c3ccccc23)cc1 [Compound 5]

SMILES: COc1ccc(S(=O)(=O)N(CC(=O)O)c2ccc(N(CC(=O)O)S(=O)(=O)c3ccc(OC)cc3)c3ncccc23)cc1 [Compound 23]
SOD mRNA expression (not an NRF2 target gene) (HaCaT cells [2]): neither isoquinoline 17 nor quinoline 23 produced a significant increase
GCLC mRNA expression (HaCaT cells [2]; 6 and 24 hours): small increase
GCLM mRNA expression (HaCaT cells [2]; 6 and 24 hours): small increase
HMOX1 mRNA expression (HaCaT cells [2]; 6 and 24 hours): no increase
NQO1 mRNA expression (HaCaT cells [2]; 6 and 24 hours): small increase
NQO1 protein level (HaCaT cells [3]; 6 h, vs DMSO): modest increase
NRF2 protein level (HaCaT cells [3]; 6 h, vs DMSO): modest increase
GCLM protein level (HaCaT cells [3]; 24 h, vs vehicle): modestly increased
NQO1 protein level (HaCaT cells [3]; 24 h, vs vehicle): no effect
NRF2 protein level (HaCaT cells [3]; 24 h, vs vehicle): no effect
NRF2 accumulation in the nucleus (HaCaT cells [4]): small significant increase; also recorded: modest increase

SMILES: CC1(C)CC[C@]2(C(=O)n3ccnc3)CC[C@]3(C)[C@H](C(=O)C=C4[C@@]5(C)C=C(C#N)C(=O)C(C)(C)[C@@H]5CC[C@]43C)[C@@H]2C1 [CDDO-Im, reference compound]
GCLM protein level (HaCaT cells [3]; 24 h, vs vehicle): significantly higher
NQO1 protein level (HaCaT cells [3]; 24 h, vs vehicle): higher
NRF2 protein level (HaCaT cells [3]; 24 h, vs vehicle): higher

IC50 (Kelch domain of KEAP1 [5]): > 25000 nM
SMILES: COc1ccc(S(=O)(=O)N(CC(=O)O)c2cc(-c3ccccc3)cc(N(CC(=O)O)S(=O)(=O)c3ccc(OC)cc3)c2)cc1 [Compound 46, 2,2’-(1,1’-biphenyl]-3,5-diylbis(((4-methoxyphenyl)sulfonyl)azanediyl) diacetic acid]

SMILES: COc1ccc(S(=O)(=O)N(CC(=O)O)c2ccc(N(CC(=O)O)S(=O)(=O)c3ccc(OC)cc3)c3ccccc23)cc1 [Compound 6a]
Dose response of revertant increase [6]: Dose response was also observed
Increase in revertants, TA100 [6, 11]: > 2 fold
Increase in revertants, TA1535 [6, 11]: > 3 fold
Compound remaining after incubation, mouse liver microsomes [7]: stable
Cytotoxicity in Mini-Ames assay [8]: No cytotoxicity
Mutagenicity judgement [8]: positive for mutagenicity
solubility (Solubility in DMSO): ≤ 50 mg/mL

Stability of the compound (Compound stability): unstable
SMILES: COc1ccc(S(=O)(=O)N(CC(=O)O)c2ccc(N(CC(=O)O)S(=O)(=O)c3ccc(OC)cc3)c3[nH]ccc23)cc1 [Compound 29, 2,2’-((1H-indole-4,7-diyl)bis(((4-methoxyphenyl)sulfonyl)azanediyl))diacetic acid]

Kd (Kelch domain of KEAP1 [9]): > 10000 nM
IC50 (Kelch domain of KEAP1 [5]): 1000 nM and 1100 nM
Compound remaining after incubation, mouse liver microsomes [7]: comparable to the other compounds
SMILES: COc1ccc(S(=O)(=O)Nc2nnc(N(CC(=O)O)S(=O)(=O)c3ccc(OC)cc3)c3ccccc23)cc1 [Compound 34, N-(4-((4-methoxyphenyl)sulfonamido)phthalazin-1-yl)-N-((4-methoxyphenyl)sulfonyl)glycine]
NQO1 protein level (HaCaT cells [3]; 6 h, vs DMSO): no increase
NRF2 protein level (HaCaT cells [3]; 6 h, vs DMSO): no increase

Aqueous solubility [1]: poor solubility
SMILES: COc1ccc(S(=O)(=O)N(CC(N)=O)c2ccc(N(CC(N)=O)S(=O)(=O)c3ccc(OC)cc3)c3ccccc23)cc1 [Compound 6b]
NQO1 protein level (HaCaT cells [3]; 6 h, vs DMSO): modest increase
NRF2 protein level (HaCaT cells [3]; 6 h, vs DMSO): modest increase
GCLM protein level (HaCaT cells [3]; 24 h, vs vehicle): significantly higher
NQO1 protein level (HaCaT cells [3]; 24 h, vs vehicle): Increased
NRF2 protein level (HaCaT cells [3]; 24 h, vs vehicle): Increased

SMILES: Cc1cc(C)c(C)c(S(=O)(=O)Nc2ccc(N3CC[C@H](C(=O)O)C3)c3ccccc23)c1C [RA-839]
In vivo activity ([10]; ref Winkel et al.[31]): active in vivo only if Phase 1 metabolism were inhibited
In vivo metabolism ([10]; ref [31]): metabolized quickly in vivo

SMILES: COc1ccc(S(=O)(=O)N(CC(=O)O)c2cnc(N(CC(=O)O)S(=O)(=O)c3ccc(OC)cc3)c3ccccc23)cc1 [Compound 17, 2,2’-(isoquinoline-1,4-diylbis(((4-methoxyphenyl)sulfonyl)azanediyl))diacetic acid]
SOD mRNA expression (not an NRF2 target gene) (HaCaT cells [2]): neither isoquinoline 17 nor quinoline 23 produced a significant increase
GCLC mRNA expression (HaCaT cells [2]; 6 hours): significant increase
GCLM mRNA expression (HaCaT cells [2]; 6 hours): significant increase
HMOX1 mRNA expression (HaCaT cells [2]; 6 hours): significant increase
NQO1 mRNA expression (HaCaT cells [2]; 24 hours): increase
Dose response of revertant increase [6]: No dose response was observed
GCLM protein level (HaCaT cells [3]; 24 h, vs vehicle): significantly higher
NQO1 protein level (HaCaT cells [3]; 24 h, vs vehicle): Increased
NRF2 protein level (HaCaT cells [3]; 24 h, vs vehicle): Increased
Cytotoxicity in Mini-Ames assay [8]: No cytotoxicity
Mutagenicity judgement [8]: better mutagenic profile than naphthalene 6a
